In paper PMC7951137 (ACS chemical neuroscience, 2021):

Experiments:
D189A hMC4R [1] = target: T1, D189A hMC4R (Homo sapiens, UniProt P32245, D189A); test: cAMP AlphaScreen antagonist assay; format: cell-based
D189N hMC4R [2] = target: T2, D189N hMC4R (Homo sapiens, UniProt P32245, D189N); test: cAMP AlphaScreen antagonist assay; format: cell-based
D189E hMC4R = D189E hMC4R (Homo sapiens, UniProt P32245, D189E); test: cAMP AlphaScreen agonist / inverse agonist assay; format: cell-based; conditions: for Inverse agonist percent decrease from basal activity: D189E hMC4R
D189S hMC4R [3] = target: T3, D189S hMC4R (Homo sapiens, UniProt P32245, D189S); test: cAMP AlphaScreen agonist / inverse agonist assay; format: cell-based; conditions: D189S hMC4R
D189Q hMC4R [4] = target: T4, D189Q hMC4R (Homo sapiens, UniProt P32245, D189Q); test: cAMP AlphaScreen antagonist assay; format: cell-based
D189K hMC4R [5] = target: T5, D189K hMC4R (Homo sapiens, UniProt P32245, D189K); test: cAMP AlphaScreen antagonist assay; format: cell-based
wildtype hMC4R = wildtype hMC4R (Homo sapiens, UniProt P32245); test: cAMP AlphaScreen agonist / inverse agonist assay; format: cell-based; conditions: WT hMC4R, basal = signal at 10^−12 M
D189Q hMC4R [6] = target: T4, D189Q hMC4R; test: cAMP AlphaScreen agonist / inverse agonist assay; format: cell-based; conditions: for Inverse agonist percent decrease from basal activity: D189Q hMC4R
D189N hMC4R [7] = target: T2, D189N hMC4R; test: cAMP AlphaScreen agonist / inverse agonist assay; format: cell-based; conditions: D189N hMC4R
D189S hMC4R [8] = target: T3, D189S hMC4R; test: cAMP AlphaScreen antagonist assay; format: cell-based; conditions: Schild analysis, agonist NDP-MSH
D189K hMC4R [9] = target: T5, D189K hMC4R; test: cAMP AlphaScreen agonist / inverse agonist assay; format: cell-based
D189A hMC4R [10] = target: T1, D189A hMC4R; test: cAMP AlphaScreen agonist / inverse agonist assay; format: cell-based
D189K hMC4R [11] = target: T5, D189K hMC4R

wildtype hMC4R, sequence (P32245 whole entry): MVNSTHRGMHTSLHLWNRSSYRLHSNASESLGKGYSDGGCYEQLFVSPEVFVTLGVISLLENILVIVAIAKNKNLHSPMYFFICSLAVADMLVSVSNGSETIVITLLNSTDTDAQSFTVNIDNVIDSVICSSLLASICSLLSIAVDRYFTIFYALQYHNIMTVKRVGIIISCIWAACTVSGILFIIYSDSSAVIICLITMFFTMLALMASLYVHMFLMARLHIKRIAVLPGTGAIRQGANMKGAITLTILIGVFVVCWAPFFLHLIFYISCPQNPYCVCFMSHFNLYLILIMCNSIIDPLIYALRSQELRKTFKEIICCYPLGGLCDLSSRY
T4 sequence (P32245 whole entry D189Q): as the sequence (P32245 whole entry) above, with D189Q counted along it
T5 sequence (P32245 whole entry D189K): as the sequence (P32245 whole entry) above, with D189K counted along it
D189E hMC4R, sequence (P32245 whole entry D189E): as the sequence (P32245 whole entry) above, with D189E counted along it
T3 sequence (P32245 whole entry D189S): as the sequence (P32245 whole entry) above, with D189S counted along it
T2 sequence (P32245 whole entry D189N): as the sequence (P32245 whole entry) above, with D189N counted along it
T1 sequence (P32245 whole entry D189A): as the sequence (P32245 whole entry) above, with D189A counted along it

| Inverse agonist percent decrease from basal activity (D189N hMC4R [7]) | Antagonist pA2 (D189S hMC4R [8]) | Inverse agonist activity (D189K hMC4R [9]) | Inverse agonist activity (D189A hMC4R [10]) | Inverse agonist percent decrease from basal signal (wildtype hMC4R; listed as AGRP) [%] | Decreased I125-AGRP binding affinity versus wildtype (D189K hMC4R [11]) [fold] | Compound | Kb (D189A hMC4R [1]) [µM] | Kb (D189N hMC4R [2]) [µM] | EC50 (D189E hMC4R) [µM] | Inverse agonist percent decrease from basal activity (D189E hMC4R) | Inverse agonist percent decrease from basal activity (D189S hMC4R [3]) | Kb (D189Q hMC4R [4]) [µM] | Kb (D189K hMC4R [5]) [µM] | Inverse agonist percent decrease from basal signal (wildtype hMC4R) | EC50 (D189Q hMC4R [6]) [µM] | Inverse agonist percent decrease from basal activity (D189Q hMC4R [6]) |
| --- | --- | --- | --- | --- | --- | --- | --- | --- | --- | --- | --- | --- | --- | --- | --- | --- |
|  |  |  |  |  |  | C[C@@H]1NC(=O)[C@H](CC(=O)O)NC(=O)[C@H](Cc2ccccc2)NC(=O)[C@H](Cc2ccccc2)NC(=O)[C@H](CCCNC(=N)N)NC(=O)[C@@H]2CCCN2C(=O)[C@H]2CCCN2C(=O)[C@H](Cc2ccccc2)NC1=O [MDE3–119-4c, c[Pro-Arg-Phe-Phe-Asp-Ala-Phe-DPro]] | > 3.16 | 0.398 | 3 | −40% | −15% | 1.58 | > 3.16 | −35% | 7 | −45% |
| 30±10 (−10%) | 8.2±0.2 | no apparent inverse agonist activity | no apparent inverse agonist activity | 35 | 10 | agouti-related protein (AGRP86–132) [hAGRP(86–132), reference compound] |  |  |  | 4.4±0.1 (−35%) | 20±10 (−20%) |  |  | 2.4±0.5 (−35%) |  | 17±5 (−35%) |
